pKd: −log10 of the molar value. Where no end group is shown, it is not given here. Where only a bound is given, the exact number is not on record here.

The values that follow come from PMC2690590, “Functional recombinant MHC class II molecules and high-throughput peptide-binding assays” (Immunome Research, 2009).

In assay [1] the target is DP401 (DPA1*0103/DPB1*0401) (Homo sapiens, UniProt P04440+P20036). The experiment in a line: Direct LOCI peptide-MHC-II binding assay, DP401.
Assay [2] has as its target T1, DRB1*0813 (DRA*0101/DRB1*0813) (Homo sapiens, UniProt P01903+P01911, A100R/A103L/A169T/F76Y/H45Y/I96L/K41T/L162R/M171V/P40S/Q125H/Q178H/Q39Y/Q99D/R218S/R42G/S66Y/V115G/W38E).
T1 construct: DRA*01011-181LZFos; DRB1*08131-190LZJunBSP; made in house
The experiment in a line: Direct LOCI peptide-MHC-II binding assay, DRB1*0813.

For another assay, the target named is T2, DR3 (DRA*0101/DRB1*0301) (Homo sapiens, UniProt P01903+P01911, A100K/A102G/A103R/A169T/F55Y/I96L/K41T/L162R/M171V/P40S/Q125H/Q178H/Q39Y/R42S/S66N/T106N/T262R/W38E/Y61H).
T2 construct: DRA*01011-181LZFos; DRB1*03011-190LZJunBSP; made in house
The experiment in a line: Direct LOCI peptide-MHC-II binding assay, DR3.

A further assay addresses T3, DR4 (DRA*0101/DRB1*0401) (Homo sapiens, UniProt P01903+P01911, A100K/A169T/F76Y/I96L/K127E/L162R/M171V/N62H/P40V/Q125Y/R42H/S133A/S149N/S66Y/V115G/V209L/W38E).
T3 construct: DRA*01011-181LZFos; DRB1*04011-190LZJunBSP; made in house
The experiment in a line: Direct LOCI peptide-MHC-II binding assay, DR4.

Assay [3] addresses T4, DRB3*0301 (DRA*0101/DRB3*0301) (Homo sapiens, UniProt P01903+P79483, A169T/A212P/D57E/G115V/L67V/Q178H/R103Q/R40L/Y55F).
T4 construct: DRA*01011-181LZFos; DRB3*03011-190LZJunBSP; made in house
The experiment in a line: Direct LOCI peptide-MHC-II binding assay, DRB3*0301.

Sequence of DP401 (DPA1*0103/DPB1*0401) (P20036 with tags, fused parts or gaps C154S): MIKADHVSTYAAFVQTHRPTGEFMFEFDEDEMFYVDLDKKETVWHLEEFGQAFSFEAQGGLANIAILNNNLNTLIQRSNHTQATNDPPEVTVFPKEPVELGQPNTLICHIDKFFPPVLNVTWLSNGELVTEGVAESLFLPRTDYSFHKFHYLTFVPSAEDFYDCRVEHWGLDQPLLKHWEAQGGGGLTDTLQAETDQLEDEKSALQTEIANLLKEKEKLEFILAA
Sequence of DP401 (DPA1*0103/DPB1*0401) (as listed by the source): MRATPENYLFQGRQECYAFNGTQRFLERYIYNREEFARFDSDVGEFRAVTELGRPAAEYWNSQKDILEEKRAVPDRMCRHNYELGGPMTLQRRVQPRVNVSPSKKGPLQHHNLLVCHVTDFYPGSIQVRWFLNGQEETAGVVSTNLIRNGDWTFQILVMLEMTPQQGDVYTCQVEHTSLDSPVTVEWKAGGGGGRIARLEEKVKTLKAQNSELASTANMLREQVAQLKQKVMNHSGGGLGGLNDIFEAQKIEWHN

With `CSCC[C@H](NC(=O)[C@@H](N)Cc1ccccc1)C(=O)N[C@@H](CO)C(=O)N[C@@H](CCCNC(=N)N)C(=O)N[C@@H](CCCCN)C(=O)N[C@@H](CC(C)C)C(=O)N[C@@H](Cc1c[nH]cn1)C(=O)N[C@@H](CCCNC(=N)N)C(=O)N[C@@H](Cc1ccc(O)cc1)C(=O)O` [Hantaan], the pKd in assay [1] is less than 5.30; in assay [2], 7.68; on DR3 (DRA*0101/DRB1*0301), 6.55; at DR4 (DRA*0101/DRB1*0401), less than 5.30.
Consider WMARRHAER [Brucella], for which the pKd (in assay [1]; in assay [3]; on DR3 (DRA*0101/DRB1*0301); on DR4 (DRA*0101/DRB1*0401)) was less than 5.30 each time.

As a reminder, the pKd is the Kd on a negative log10 scale, so that one unit is a factor of ten. Read a low pKd as a high Kd.
